Laboratory results: paper PMC9106635, “Stimulation of the atypical chemokine receptor 3 (ACKR3) by a small-molecule agonist attenuates fibrosis in a preclinical liver but not lung injury model” (Cellular and Molecular Life Sciences: CMLS, 2022)

Key:
[1] = Compound concentration in liver and lung tissue homogenates (LC-MS/MS); type: in vivo, mouse; conditions: mean ± sem
Experimental: Pharmacokinetic analysis of plasma samples was performed at GVK BIO Sciences Pvt. Ltd. (Hyderabad, India). The pharmacokinetic properties of compound 18a were determined by subcutaneous administration in male C57BL/6 mice. A 30 mg/kg dose was formulated as a solution in 23% hydroxypropyl-beta-cyclodextrin (HPBCD; w/v) in water. The dose volume was 3 mL/kg. Serial blood samples were collected at 0.5, 1, 2, 4, 6, 8 and 24 h post dosing (n = 3). Plasma concentration of compound 18a was determined by a LC–MS/MS method. Chromatography was performed on a reverse phase column (Kinetex EVO, C18, 50 × 4.6 mm, 5 µ) at a flow rate of 1 mL/minute, using a gradient-elution method. Mobile Phase A was a 10 mM ammonium acetate solution with 0.1% formic acid in water, whereas mobile phase B was a mixture of acetonitrile and methanol (50:50). The gradient started at 5% B ramped up to 95% B over 1 min, held at 95% B for 1.2 min, and then ramped down to 5% B over 0.1 min, and held at 5% B for 1.2 min. The mass spectrometer was operated in positive-ionization mode and Telmisartan was used as internal standard. […] The Cmax, Tmax, AUC and half-life value (t1/2) were determined using standard non-compartmental pharmacokinetic methods. The concentration of compound 18a in liver and lung tissue was determined by LC–MS/MS at Eurofins (Vergeze, France). […] Data are expressed as mean ± sem.

hCXCR4 = hCXCR4 (Homo sapiens, UniProt P61073); experiment: Ca2+ mobilization assay, U87.CD4.CXCR4 cells, CXCL12-induced; type: cell-based; parameters: expressed in transfected cells; host or cells: U87.CD4.CXCR4; conditions: antagonism of CXCL12 response
Experimental: The calcium (Ca^2+) mobilization assay was described in detail before. Briefly, U87.CD4.CXCR4 or U87.CD4.CCR5 cells (2 × 10^4 cells per well in DMEM/10% FBS/0.01 M HEPES) were seeded in gelatin-coated (Sigma-Aldrich; 0.1% gelatin in DPBS) black-walled 96-well plates and incubated overnight at 37 °C and 5% CO2. The next day, cells were loaded with the fluorescent Ca^2+ indicator Fluo-2 acetoxymethyl (AM) ester (4 μM final concentration; Abcam) and incubated at RT in the dark for 45 min. Then, cells were washed with assay buffer (see above) and subsequently incubated with different concentrations of compound for ~ 10 min prior to addition of 6.25 nM CXCL12 (in case of CXCR4) or 6.4 nM CCL5 (in case of CCR5). Fluctuations in intracellular Ca^2+ levels were measured in real time by the FLIPR Tetra® device (Molecular Devices) in all 96 wells simultaneously. The response (Relative Light Units, RLUs) over baseline was calculated (ScreenWorks 4.0® software, Molecular Devices) by dividing the RLUs by a base line value measured just before addition of CXCL12 or CCL5, respectively. Inhibition of the Ca^2+ response was determined taking into account negative (i.e., untreated cells without stimulation) and positive (i.e., untreated cells stimulated with either CXCL12 or CCL5) control samples.

[2] = test system: CCl4-induced liver fibrosis in C57BL/6J mice; experiment: CCl4-induced liver fibrosis model; type: in vivo, mouse; conditions: 15 mg/kg/dose SC BID
Experimental: A preclinical mouse model for CCl4-induced liver fibrosis was performed at the Department of Metabolic Health Research, The Netherlands Organisation for Applied Scientific Research (TNO) (Leiden, The Netherlands). Fifty-two male C57BL/6J mice were matched on body weight prior to the study and divided into five groups (experimental study design, Supplementary Figure S1a). Starting at day 0, 10–12-week-old mice were intraperitoneally (i.p.) injected (three times a week) with mineral oil (group 1) or CCl4 (15% v/v in mineral oil, group 2–5) for a total of 28 days. At day 0, mice received subcutaneous treatment with compound 18a (15 mg/kg/dose, twice daily (BID), group 3), or corresponding vehicle control (23% HPBCD, twice daily (BID), groups 1 and 2)], or received daily gavage with either an ALK5/ALK4 kinase inhibitor [SM 16 (45 mg/kg/dose, PO, QD, group 5) or its corresponding vehicle control (β-cyclodextrin sulfobutyl ether sodium salt or captisol, PO, QD, group 4)]. Plasma samples were collected by a tail vein bleed at day 7. At day 28, mice were sacrificed using CO2 and additional plasma samples and liver lobes were collected. As a primary endpoint collagen surface area was determined on cross-sections of the lateral left lobe by picro sirius red (PSR) staining. As a secondary endpoint collagen content (hydroxyproline) of the left median lobe was analyzed using a chromogenic assay according to the manufacturer’s instructions (QuickZyme Biosciences, Leiden, The Netherlands).

[3] = parameters: method as in PMID 29627981; conditions: mice; cited from earlier work

Chain of hCXCR4 (P61073 whole entry): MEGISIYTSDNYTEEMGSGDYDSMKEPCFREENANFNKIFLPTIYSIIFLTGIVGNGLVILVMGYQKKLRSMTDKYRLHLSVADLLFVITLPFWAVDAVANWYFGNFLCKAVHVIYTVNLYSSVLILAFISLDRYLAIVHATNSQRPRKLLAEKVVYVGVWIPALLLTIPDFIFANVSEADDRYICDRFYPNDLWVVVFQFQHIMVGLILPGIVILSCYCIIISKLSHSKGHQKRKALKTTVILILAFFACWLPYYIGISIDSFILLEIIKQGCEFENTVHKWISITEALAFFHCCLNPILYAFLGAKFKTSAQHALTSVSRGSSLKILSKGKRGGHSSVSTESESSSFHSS

CCc1ccn2ccnc2c1N1CCCN(C(CC(N)=O)C2CCN(C(=O)C3CC4CCC3O4)CC2)CC1 (stereo not shown) [compound 18a]
concentration in lung tissue ([1]; day 21, 2 h after last subcutaneous dose (15 mg/kg BID), n=4): 1703 ± 54 ng/g tissue | concentration in liver tissue ([1]; day 28, 2 h after last subcutaneous dose (15 mg/kg BID), n=3): 2528 ± 511 ng/g tissue | IC50 (hCXCR4): > 40 µM | liver weight per body weight ([2]; CCl4-treated mice, day 28): not affected by compound 18a treatment | collagen levels by PSR staining ([2]; day 28, vs CCl4 + 23% HPBCD, P = 0.04): modestly, but significantly, reduced collagen levels | hydroxyproline levels in liver ([2]; day 28, vs CCl4 + 23% HPBCD, P = 0.06): near significant reduction of hydroxyproline levels | oral bioavailability [3]: not orally bioavailable
